Measurements taken from patent US8383637B2, “2-amino-quinazoline derivatives useful as inhibitors of β-secretase (BACE)” (Jansssen Pharmaceutica N.V., priority 2004, dated 2013).
Like-named read-outs stand apart in the source and are kept apart here.

Legend:
β-secretase(BACE) [1] = molecular target: T1, β-secretase(BACE) (Homo sapiens, UniProt P56817); experiment: BACE FS1% Inhibition Assay; assay type: biochemical; conditions: FS1 substrate; for inhibition at 0.3 µM: 0.3 μM test compound; for inhibition at 1 µM: 1 μM test compound; for inhibition at 3 µM: 3 μM test compound
T1 construct: purchased Panvera
T1 sequence (P56817 46-501): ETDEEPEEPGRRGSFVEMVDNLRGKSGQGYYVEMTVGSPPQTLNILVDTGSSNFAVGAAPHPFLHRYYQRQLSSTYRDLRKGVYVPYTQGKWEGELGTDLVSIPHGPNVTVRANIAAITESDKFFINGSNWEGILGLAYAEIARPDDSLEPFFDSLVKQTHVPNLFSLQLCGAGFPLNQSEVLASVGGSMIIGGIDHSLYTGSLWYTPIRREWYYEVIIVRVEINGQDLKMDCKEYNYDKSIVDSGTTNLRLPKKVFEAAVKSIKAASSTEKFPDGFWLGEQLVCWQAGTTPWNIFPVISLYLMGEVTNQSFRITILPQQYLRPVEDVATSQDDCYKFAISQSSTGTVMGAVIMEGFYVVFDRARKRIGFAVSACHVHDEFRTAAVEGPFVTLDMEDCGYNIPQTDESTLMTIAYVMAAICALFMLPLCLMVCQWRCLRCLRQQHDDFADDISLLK
How it was run: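 Percent inhibition at each tested concentration, referenced to enzyme-free blank and vehicle-only positive control. Reaction: compound and BACE (4 μg/mL working stock) mixed 20 min at room temperature before FS1 substrate (300 μg/mL working stock), then 1 h at room temperature.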

β-secretase(BACE) [2] = molecular target: T1, β-secretase(BACE); experiment: BACE Assay-2 (FS1 substrate, IC50 and Ki); assay type: biochemical; conditions: procedure of Example 159, FS1 substrate; read-out: Ki μM (159)
Experimental: The FS1-substrate stock solution was prepared in DMSO as a 10 mg/mL solution. The FS1-substrate working solution was prepared by diluting the 10 mg/mL stock solution with substrate assay buffer to a final concentration of 300 μg/mL. The β-secretase (BACE) working solution was prepared by diluting a 0.83 mg/mL BACE stock solution with enzyme assay buffer to a final concentration of 4 μg/mL.
Test compounds were dissolved in DMSO at 10 mM.
The procedure for this assay was as follows: 15 μL of BACE working solution was pipetted into each well of a 96-well plate. To each well was then pipetted 2 μL of test compound at the selected concentration. Test compound and BACE were then mixed with a pipettor and incubated for 20 min at room temperature. To each well was then added 10 μL of the FS1 substrate working solution.
The procedure for the positive control was as follows: 15 μL of BACE working solution was pipetted into each well to be used as a positive control. To each well was then pipetted 2 μL of vehicle. Vehicle and BACE were then mixed with a pipettor and incubated for 20 min at room temperature. To each well was then added 10 μL of the FS1 substrate working solution.
For test compounds, measured at multiple concentrations, the measured T0 and T60 values were used to calculate an IC50 value using Graphpad Software (or PIR). For test compounds, Ki inhibition was determined as follows: For each compound concentration and positive control, rate of cleavage of substrate (Vi, where i=compound concentration in μM) was determined as Δ Fluorescence/Δ time (min). Cleavage rates (Vi) were plotted as a function of inhibitor concentration in μM [I]. The Ki was then determined by fitting the following equation to the graph of [I] vs Vi Y=aVmax/(50+24*(1+X/Ki)),

[3] = read-out: % Inhibition (FS) 0.3 μM
[4] = read-out: % Inhibition (FS) 1 μM
[5] = read-out: % Inhibition (FS) 3 μM

inhibition at 0.3 µM (β-secretase(BACE) [1]; read-out: % Inhibition (FS)) [%] | inhibition at 1 µM (β-secretase(BACE) [1]; read-out: % Inhibition (FS)) [%] | inhibition at 3 µM (β-secretase(BACE) [1]; read-out: % Inhibition (FS)) [%] | Ki (β-secretase(BACE) [2]) [µM] | inhibition at 0.3 µM (β-secretase(BACE) [1]; [3]) [%] | inhibition at 1 µM (β-secretase(BACE) [1]; [4]) [%] | inhibition at 3 µM (β-secretase(BACE) [1]; [5]) [%] | Compound
17 | 63 | 101 | 0.168 |  |  |  | CCOC(=O)C1CCC(N(C)C(=O)CCC(C2CCOCC2)N2Cc3cc(Oc4ccccc4)ccc3N=C2N)CC1 (stereo not drawn) [Compound 742]
 |  |  | 1.04 | < 30 | 54 | 85 | CC(C)N(C(=O)CCN1Cc2cc(Oc3ccccc3)ccc2N=C1N)C1CCCCC1 [Compound 179]
141 | 143 | 139 | 0.0065 |  |  |  | CN(C(=O)CC[C@@H](C1CCOCC1)N1Cc2cc(Oc3ccccc3)ccc2N=C1N)C1CCCCC1 [Compound 709, (S)-enantiomer of 4-(2-Amino-6-phenoxy-4H-quinazolin-3-yl)-N-cyclohexyl-N-methyl-4-(tetrahydro-pyran-4-yl)-butyramide]
 |  |  | 0.69 | < 30 | < 30 | 68 | CC(C)CN(CC(C)C)C(=O)c1cccc(CN2Cc3cc(Oc4ccccc4)ccc3N=C2N)c1 [Compound 211]
 |  |  | 0.77 | 20 | 60 | 92 | CN(C(=O)c1cccc(CN2Cc3cc(-c4ccccc4C#N)ccc3N=C2N)c1)C1CCCCC1 [Compound 263]
72 | 93 | 138 | 0.3 |  |  |  | COc1ccccc1-c1ccc2c(c1)CN([C@@H](CCC(=O)N(C)CCC#N)C1CCCCC1)C(N)=N2 [Compound 720]
 |  |  | 0.2 | 66 | 97 | 111 | Cc1cccc(-c2ccc3c(c2)CN(Cc2cccc(C(=O)N(C)C4CCCCC4)c2)C(N)=N3)c1 [Compound 176]
 |  |  | 0.13 | < 30 | 80 | 118 | COc1ccccc1-c1ccc2c(c1)CN(C(CCC(=O)N(C)C1CCCCC1)C1CCCCC1)C(N)=N2 (single isomer, unassigned) [Compound 530]
82 | 98 | 104 | 0.037 |  |  |  | CN(C(=O)CC[C@@H](C1CCCCC1)N1Cc2cc(Oc3ccccc3)ccc2N=C1N)[C@H]1CC[C@H](C(=O)O)CC1 [Compound 740]
 |  |  | 0.65 | < 30 | < 30 | 71 | CN(C(=O)c1cccc(CN2Cc3cc(-c4ccccc4C(F)(F)F)ccc3N=C2N)c1)C1CCCCC1 [Compound 268]
 |  |  | 0.52 | < 30 | 45 | 91 | COc1ccccc1C(=O)NCCN1Cc2cc(Oc3ccccc3)ccc2N=C1N [Compound 216]
135 | 135 | 133 | 0.01 |  |  |  | CN(C(=O)CC[C@@H](C1CCC(=O)CC1)N1Cc2cc(Oc3ccccc3)ccc2N=C1N)C1CCCCC1 [Compound 732, (S)-enantiomer of 4-(2-Amino-6-phenoxy-4H-quinazolin-3-yl)-N-cyclohexyl-N-methyl-4-(4-oxo-cyclohexyl)-butyramide]
 |  |  | 0.52 | < 30 | 55 | 87 | CN(C(=O)c1cccc(CN2Cc3cc(-c4ccccc4OC(F)(F)F)ccc3N=C2N)c1)C1CCCCC1 [Compound 324]
 |  |  | 0.16 | 42 | 92 | 115 | CN(C(=O)CC[C@@H](CO)N1Cc2cc(Oc3ccccc3)ccc2N=C1N)C1CCCCC1 [Compound 558, (S)-enantiomer of 4-(2-Amino-6-phenoxy-4H-quinazolin-3-yl)-5-hydroxy-pentanoic acid cyclohexyl-methyl-amide]
 |  |  | 0.49 | 40 | 56 | 86 | NC1=Nc2ccc(-c3cccc(CO)c3)cc2CN1CCNC(=O)CC1CCCC1 [Compound 583]
